Data published in the supplement of paper PMC10307832.

What was measured:
Test in all cases: relative viability (nuclei count vs DMSO), 5 days (fraction); higher = more cells survive
[1] = compound: C(C(=O)C(=O)O)Br [Bromopyruvate] + Cc1nc(Nc2ncc(C(=O)Nc3c(C)cccc3Cl)s2)cc(N2CCN(CCO)CC2)n1 [Dasatinib] (partner 0.075 µM)
How it was run: (§1)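 Relative viability divides the nuclei count in treated wells by that in vehicle wells. Lung cancer cell lines were seeded in 1536-well plates, dosed by pin tool the next day, and fixed and stained after 5 days in one step with final 0.05% Triton X-100, 1% formaldehyde and 1 ug/ml Hoechst. Dosing was a single drug or a fixed anchor-drug dose plus five library-drug doses (not always all listed) in √10 steps, and values are medians of duplicate plates imaged at 4×.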

[2] = compound: CC(O)(CS(=O)(=O)c1ccc(F)cc1)C(=O)Nc1ccc(C#N)c(C(F)(F)F)c1 [Bicalutamide] + CC(=O)Nc1cccc(-n2c(=O)n(C3CC3)c(=O)c3c(Nc4ccc(I)cc4F)n(C)c(=O)c(C)c32)c1 [Trametinib] (partner 0.02 µM)
How it was run: as §1

Bicalutamide + Foretinib = compound: CC(O)(CS(=O)(=O)c1ccc(F)cc1)C(=O)Nc1ccc(C#N)c(C(F)(F)F)c1 [Bicalutamide] + COc1cc2c(Oc3ccc(NC(=O)C4(C(=O)Nc5ccc(F)cc5)CC4)cc3F)ccnc2cc1OCCCN1CCOCC1 [Foretinib] (partner 0.25 µM)
How it was run: as §1

[3] = compound: C(C(=O)C(=O)O)Br [Bromopyruvate] + CC(C)C[C@H](NC(=O)[C@H](Cc1ccccc1)NC(=O)c1cnccn1)B(O)O [Bortezomib] (partner 0.002 µM)
How it was run: as §1

Cell Line	relative viability ([1]; first compound 1 µM)	relative viability ([1]; first compound 3.162 µM)	relative viability ([1]; first compound 10 µM)	relative viability ([1]; first compound 31.62 µM)	relative viability ([1]; first compound 100 µM)	relative viability ([2]; first compound 0.08 µM)	relative viability ([2]; first compound 0.253 µM)	relative viability ([2]; first compound 0.8 µM)	relative viability ([2]; first compound 2.53 µM)	relative viability (Bicalutamide + Foretinib; first compound 0.08 µM)	relative viability (Bicalutamide + Foretinib; first compound 0.253 µM)	relative viability (Bicalutamide + Foretinib; first compound 0.8 µM)	relative viability (Bicalutamide + Foretinib; first compound 2.53 µM)	relative viability ([3]; first compound 1 µM)	relative viability ([3]; first compound 3.162 µM)	relative viability ([3]; first compound 10 µM)	relative viability ([3]; first compound 31.62 µM)	relative viability ([3]; first compound 100 µM)
NCI-H1975	0.369	0.4	0.349	0.442	0.344	0.323	0.412	0.386	0.339	1.07	0.824	0.971	0.827	0.423	0.431	0.475	0.405	0.5
CAL-12T	0.488	0.341	0.409	0.539	0.392	0.37	0.343	0.398	0.264	1.11	1.04	1.32	1.13	1.04	1.08	0.904	0.977	0.934
NCI-H1623	0.574	0.487	0.672	0.597	0.576					0.883	0.884	0.918	0.869					
HCC-44						1.16	1.09	1.07	1.1					0.914	0.897	0.872	0.918	0.962
EKVX	0.433	0.547	0.578	0.689	0.628	0.319	0.31	0.359	0.283	0.749	0.757	0.95	0.752	1.08	0.993	1.12	1.11	1.1
NCI-H1651	0.409	0.462	0.527	0.411	0.428	0.836	0.773	0.932	0.83	0.89	0.734	1.01	0.884	0.922	0.952	1.04	0.822	0.867
NCI-H1944	0.235	0.255	0.213	0.196	0.205	0.408	0.393	0.421	0.397	0.837	0.749	0.981	0.775					
NCI-H1703										0.342	0.36	0.41	0.293	0.369	0.244	0.366	0.315	0.543
Calu-6										0.931	0.916	0.853	0.843	1.09	1.05	1.07	0.993	0.903
EBC-1										0.0878	0.115	0.0994	0.121	0.527	0.67	0.56	0.574	0.511
A-427	0.733	0.688	0.685	0.669	0.685	0.782	0.731	0.845	0.688	1.08	1.03	1.09	1.05	0.999	1.02	0.931	1.05	1.06
NCI-H2405	0.242	0.218	0.209	0.19	0.231	0.674	0.606	0.78	0.638	1.04	1.03	1.11	1.01	1.02	0.992	1.19	0.954	1.04
NCI-H1355	0.674	0.761	0.766	0.713	0.786	0.432	0.383	0.447	0.472	1.03	0.963	1.1	1.03	1.35	1.16	1.25	1.34	1.16
NCI-H358	0.197	0.149	0.143	0.171	0.167	0.161	0.128	0.125	0.132	0.767	0.565	0.958	0.73					
RERF-LC-KJ	0.882	0.797	1.04	0.878	0.73	0.968	0.909	1.07	0.81	0.814	0.927	1.04	0.889	1.09	1.14	1	1.18	1.29
NCI-H23	0.721	0.794	1.1	0.775	1.07	0.418	0.317	0.434	0.399	0.905	0.876	1.01	0.965	1.03	0.991	1.25	0.941	0.839
HOP-62	0.643	0.68	0.791	0.609	0.709	0.396	0.403	0.427	0.354	1.11	1.13	1.29	1.26	0.739	0.832		0.547	0.628
HARA	0.216	0.297	0.241	0.282	0.362	0.942		0.634	0.48	0.931	0.836	1.17	0.897	1.11	1.13	1.13	1.17	1.15
PC-14	0.307	0.328	0.284	0.272	0.191	0.879	0.738	0.926	0.72	0.951	0.905	1.03	0.965	0.958	0.873	0.883	1	0.912
NCI-H1755	0.439	0.46	0.469	0.464	0.475	0.738	0.774	0.776	0.751	0.895	0.883	0.96	0.853	0.967	0.938	0.994	1.01	1.03
HCC-78	0.342	0.409	0.381	0.274	0.305	0.94	0.653	0.86	0.779	0.566	0.543	0.55	0.52	0.282	0.615	0.569	0.563	0.495
IA-LM										1.22	1.1	1.17	1.18	0.872	0.835	0.908	0.835	0.64

Cell Line	relative viability ([1]; first compound 1 µM)	relative viability ([1]; first compound 3.162 µM)	relative viability ([1]; first compound 10 µM)	relative viability ([1]; first compound 31.62 µM)	relative viability ([1]; first compound 100 µM)	relative viability ([2]; first compound 0.08 µM)	relative viability ([2]; first compound 0.253 µM)	relative viability ([2]; first compound 0.8 µM)	relative viability ([2]; first compound 2.53 µM)	relative viability (Bicalutamide + Foretinib; first compound 0.08 µM)	relative viability (Bicalutamide + Foretinib; first compound 0.253 µM)	relative viability (Bicalutamide + Foretinib; first compound 0.8 µM)	relative viability (Bicalutamide + Foretinib; first compound 2.53 µM)	relative viability ([3]; first compound 1 µM)	relative viability ([3]; first compound 3.162 µM)	relative viability ([3]; first compound 10 µM)	relative viability ([3]; first compound 31.62 µM)	relative viability ([3]; first compound 100 µM)
NCI-H441	0.64	0.618	0.693	0.677	0.486	0.492	0.374	0.497	0.406	1.19	0.894	0.964	0.787	0.37	0.549	0.481	0.548	0.459
NCI-H322M	0.253	0.258	0.248	0.235	0.259	0.537	0.541	0.502	0.503	1.01	0.851	1.16	1.06	1.2	1.25	1.12	1.18	1.26
NCI-H1993	0.826	0.766	0.841	0.652	0.617	0.492	0.519	0.536	0.56	0.738	0.7	0.866	0.971	1.34	0.954	1.21	1.08	1.15
COR-L23	0.604	0.514	0.631	0.449	0.13	0.616	0.545	0.71	0.579	1.04	0.981	1.12	1.02	0.943	0.939	1.12	0.975	0.486
NCI-H2126	0.659	0.594	0.611	0.622	0.587	0.546	0.523	0.545	0.626	1.21	1.19	1.36	1.18	1.1	1.05	1.12	1.14	1.15
LC-2-ad	0.765	0.671	0.634	0.54	0.437	0.892	0.86	0.961	0.907	0.969	0.829	1.02	1.03	0.924	0.934	1.07	0.977	0.988
NCI-H1915	0.331	0.326	0.319	0.275	0.315	0.338	0.288	0.286	0.229	0.753	1.06	1.11	1.13	1	1.02	1.01	0.929	0.975
NCI-H1793	0.385	0.402	0.415	0.407	0.386	0.382		0.448	0.439	0.796	0.553	0.983	0.792					
NCI-H2085	0.246	0.243	0.234	0.263	0.284	0.513	0.554	0.535	0.404	1.02	1.1	0.878	0.753	1.07	1.18	1.15	1	0.792
NCI-H1792	0.81	0.892	0.91		0.723	0.439	0.362	0.542	0.434					1.01	0.932	1.11	0.879	0.915
NCI-H522	0.856	0.781	0.816	0.892	1.01	0.661	0.723	0.813	0.8									
NCI-H1299										1.04	1.08	1.09	1.08	0.973	1.02	1.06	0.956	1
NCI-H1648								0.395	0.546									
SK-MES-1	0.424	0.332	0.345	0.339	0.417	0.534	0.508	0.456	0.499	0.832	0.829	0.979	1.03					
NCI-H2342	0.307	0.292	0.319	0.285	0.319	0.771	0.807	0.768	0.805	1.08	1.13	1.09	1.08					
SW 900	0.498	0.552	0.533	0.516	0.592	0.778	0.678	0.756	0.809	1.15	0.866	1.04	1.07					
LK-2	0.284	0.328	0.322	0.336	0.317	0.652	0.672	1.15	0.742	1.44	0.992	1.63	1.32					
NCI-H1395	0.412	0.386	0.457	0.423	0.396	0.986	1.04	1.12	0.948	0.938	0.94	1.23	0.874					
A549										0.907	1.02	1.01	0.927					
NCI-H2170	0.553	0.509	0.59	0.627	0.635	0.892	0.861	0.97	0.931	0.993	1	1.1	0.98					
NCI-H1563	0.487	0.47	0.563	0.402	0.426					0.888	0.872	0.89	0.897	0.859	0.925	0.868	0.789	0.943
ABC-1	0.692	0.492	0.62	0.584	0.348					0.987	1.05	1.18	1.24	0.342	0.31		0.347	0.332
